What was measured:
[1] = Static vapor sorption studies; assay type: physicochemical; details: Panel: Static humidity; 7 experiments
Description: Static Vapor Sorption Studies
Static vapor sorption studies were done in hermetic humidity chambers using saturated salts, or environmental humidity chambers to control the temperature and humidity. Data collected during dynamic vapor sorption studies often are not at thermodynamic equilibrium. To gain a better understanding of the water uptake and the critical humidity level of the API, samples of the starting material (i.e., Form A) were monitored in static humidity chambers to allow the sample to equilibrate with atmospheric moisture.
In these studies, water vapor sorption was determined gravimetrically by storing samples in open aluminum dishes. Compound I diphosphate salt lot was used for this study. Samples were stored at 7 different humidity levels at ambient temperature (Table 19). Approximately 50 mg of Form A was staged at each humidity condition. The samples were weighed before placing them in the chamber and then re-weighed after 3 weeks. After re-weighing, the samples were immediately analyzed by XRD to determine whether a change in form had occurred.
The sample stored at 11% RH was an outlier and was therefore omitted from the final isotherm plot. The static isotherm plot is roughly consistent with the DVS isotherm plot (FIG. 12F) with a large moisture uptake at around 40% RH and a maximum uptake between 4 and 5 weight percent.

[2] = Hygroscopicity - Dynamic Vapor Sorption (DVS); assay type: physicochemical
Procedure: Hygroscopicity—Dynamic Vapor Sorption (DVS)
DVS is a gravimetric technique that measures how quickly and how much of a solvent (water) is sorbed by a sample. The relative humidity or vapor concentration surrounding the sample is varied while the change in mass of the sample is measured. […] The mass values at each relative humidity step are used to generate an isotherm. Isotherms are divided in two components: sorption for increasing humidity steps and desorption for decreasing humidity steps. A plot of kinetic data is also used to show the change in mass and humidity as a function of time.
The samples were analyzed using a TA Q5000 automated dynamic vapor sorption analyzer. The samples were dried at 60° C. over 180 minutes and then cooled to 25° C. with a dry nitrogen purge. The samples were then subjected to 0 to 90% RH, back to 10% RH at 25° C. in 10% RH steps.

clinical = details: for CL/F (apparent clearance), Mean / Tlast (time of last measurable concentration), Median / Tlast, Max / Tlast, Min / Tmax, Min / Tmax, Max / AUC(0-t): single oral dose, N = 6; for CL/F (apparent clearance), Mean / Tlast (time of last measurable concentration), Median / Tlast, Max / Tlast, Min / Tmax, Min / Tmax, Max / Tmax / half-life / Vd/F / AUC(0-inf) / Cmax / AUC(0-t): plasma; for Tmax / half-life / Vd/F / AUC(0-inf) / Cmax / AUC(0-t): human; for AUC(0-t): Mean
Description: The study comprised a single ascending dose (SAD), sequential cohort study, incorporating a food effect (FE) evaluation. Up to 40 subjects were to be studied in 5 cohorts (Cohorts A1 to A5), each cohort consisting of 8 subjects.
Subjects in Cohort A3 participated in 2 treatment periods (once in Fed state, once in Fasted state) separated by a minimum of 6 days. All subjects were to return for a poststudy on Day 5 (+2 days) after their final dose for a final safety assessment.
All doses for Cohorts A1, A2, A4, and A5 were administered in the fasted state in the moming of Day 1.
The actual blood sampling dates and times relative to dosing time were listed by subject and nominal sampling time, with time deviation calculated, for all subjects with available plasma concentration data.
For PK concentration data, the number of non-missing values, number of below limit of quantification (BLQ) values, arithmetic mean, standard deviation, median, minimum, maximum, coefficient of variation (CV %), geometric mean and geometric coefficient of variation (geo CV %) values was presented.
For PK parameter data, the number of non-missing values, arithmetic mean, standard deviation, median, minimum, and maximum values were presented.

CN(C)C[C@H]1CN(CCc2ccsc2)CC[C@]1(O)c1cccc(C(N)=O)c1 [Compound I, 3-(3S, 4R)-3-((dimethylamino)methyl)-4-hydroxy-1-(2-(thiophen-3-yl)ethyl)piperidin-4-yl-benzamide]
No. of experiments giving Amorphous Form [1]: 0
No. of experiments giving Form A [1]: 7
No. of experiments with No solid recovered [1]: 0
maximum moisture uptake [2]: approximately 10.5 wt %
hygroscopicity ([2]; in words, listed as Compound I free base): hygroscopic
CL/F (apparent clearance), Mean (clinical; 20 mg DS (Fasted)): 1130 L/h
Tlast (time of last measurable concentration), Median (clinical; 20 mg DS (Fasted)): 4.00 h
Tlast, Max (clinical; 20 mg DS (Fasted)): 4.03 h
Tlast, Min (clinical; 20 mg DS (Fasted)): 3.50 h
Tmax, Min (clinical; 20 mg DS (Fasted)): 0.500 h
CL/F (clinical; 20 mg fasted): 1130 L/h
mean concentrations measurable through (clinical; 20 mg fasted): 3.5 h
CL/F (apparent clearance), Mean (clinical; 60 mg DS (Fasted)): 937 L/h
Tlast (time of last measurable concentration), Median (clinical; 60 mg DS (Fasted)): 12.0 h
Tlast, Max (clinical; 60 mg DS (Fasted)): 24.0 h
Tlast, Min (clinical; 60 mg DS (Fasted)): 6.00 h
Tmax, Max (clinical; 60 mg DS (Fasted)): 3.02 h
CL/F (clinical; 60 mg fasted): 937 L/h
mean concentrations measurable through (clinical; 60 mg fasted): 8 h
CL/F (apparent clearance), Mean (clinical; 120 mg DS (Fasted)): 541 L/h
Tlast (time of last measurable concentration), Median (clinical; 120 mg DS (Fasted)): 36.0 h
Tlast, Max (clinical; 120 mg DS (Fasted)): 48.0 h
Tlast, Min (clinical; 120 mg DS (Fasted)): 16.0 h
Tmax, Max (clinical; 120 mg DS (Fasted)): 3.00 h
mean concentrations measurable through (clinical; 120 mg fasted): 36 h
CL/F (apparent clearance), Mean (clinical; 200 mg DS (Fasted)): 452 L/h
Tlast (time of last measurable concentration), Median (clinical; 200 mg DS (Fasted)): 48.0 h
Tlast, Max (clinical; 200 mg DS (Fasted)): 48.1 h
Tlast, Min (clinical; 200 mg DS (Fasted)): 36.0 h
Tmax, Max (clinical; 200 mg DS (Fasted)): 2.02 h
Tmax, Min (clinical; 200 mg DS (Fasted)): 1.00 h
mean concentrations measurable through (clinical; 200 mg fasted): 36 h
CL/F (apparent clearance), Mean (clinical; 400 mg DS (Fasted)): 500 L/h
Tlast (time of last measurable concentration), Median (clinical; 400 mg DS (Fasted)): 48.0 h
Tlast, Max (clinical; 400 mg DS (Fasted)): 48.0 h
Tlast, Min (clinical; 400 mg DS (Fasted)): 48.0 h
Tmax, Max (clinical; 400 mg DS (Fasted)): 2.02 h
Tmax, Min (clinical; 400 mg DS (Fasted)): 1.00 h
mean concentrations measurable through (clinical; 400 mg fasted): 48 h
Tmax (clinical; oral): 1.5 to 2.5 h
half-life (clinical; oral): 29.4 to 31.4 h
Vd/F (clinical; oral, 20 mg): 1380 L
half-life (clinical; oral, 20 mg): 1.05 h
Vd/F (clinical; oral, 60 mg): 6790 L
half-life (clinical; oral, 60 mg): 7.89 h
Vd/F (clinical; oral, 120 mg): 12300 L
Vd/F (clinical; oral, 200 mg): 18100 L
Vd/F (clinical; oral, 400 mg): 20400 L
AUC(0-inf) (clinical; po, 20 mg): 18.4 ng·h/mL
Cmax (clinical; po, 20 mg): 9.69 ng/mL
Tmax (clinical; po, 20 mg): 2.5 h
Vd/F (clinical; po, 20 mg): 1380 L
half-life (clinical; po, 20 mg): 1.05 h
AUC(0-t) (clinical; po, 20 mg, AUC0-last (zero to 24 hours postdose), 20 mg DS (Fasted)): 16.5 ng·h/mL
AUC(0-t) (clinical; po, 20 mg, AUC0-t (zero to the last quantifiable concentration), 20 mg DS (Fasted)): 13.9 ng·h/mL
AUC(0-inf) (clinical; po, 60 mg): 79.8 ng·h/mL
Cmax (clinical; po, 60 mg): 51.7 ng/mL
Tmax (clinical; po, 60 mg): 2.25 h
Vd/F (clinical; po, 60 mg): 6790 L
half-life (clinical; po, 60 mg): 7.89 h
AUC(0-t) (clinical; po, 60 mg, AUC0-last (zero to 24 hours postdose), 60 mg DS (Fasted)): 71.6 ng·h/mL
AUC(0-t) (clinical; po, 60 mg, AUC0-t (zero to the last quantifiable concentration), 60 mg DS (Fasted)): 67.1 ng·h/mL
AUC(0-inf) (clinical; po, 120 mg): 245 ng·h/mL
Cmax (clinical; po, 120 mg): 98.5 ng/mL
Tmax (clinical; po, 120 mg): 2.28 h
Vd/F (clinical; po, 120 mg): 12300 L
half-life (clinical; po, 120 mg): 31.4 h
AUC(0-t) (clinical; po, 120 mg, AUC0-last (zero to 24 hours postdose), 120 mg DS (Fasted)): 211 ng·h/mL
AUC(0-t) (clinical; po, 120 mg, AUC0-t (zero to the last quantifiable concentration), 120 mg DS (Fasted)): 231 ng·h/mL
AUC(0-inf) (clinical; po, 200 mg): 446 ng·h/mL
Cmax (clinical; po, 200 mg): 220 ng/mL
Tmax (clinical; po, 200 mg): 2 h
Vd/F (clinical; po, 200 mg): 18100 L
half-life (clinical; po, 200 mg): 29.4 h
AUC(0-t) (clinical; po, 200 mg, AUC0-last (zero to 24 hours postdose), 200 mg DS (Fasted)): 346 ng·h/mL
AUC(0-t) (clinical; po, 200 mg, AUC0-t (zero to the last quantifiable concentration), 200 mg DS (Fasted)): 381 ng·h/mL
AUC(0-inf) (clinical; po, 400 mg): 832 ng·h/mL
Cmax (clinical; po, 400 mg): 318 ng/mL
Tmax (clinical; po, 400 mg): 1.5 h
Vd/F (clinical; po, 400 mg): 20400 L
half-life (clinical; po, 400 mg): 32.1 h
AUC(0-t) (clinical; po, 400 mg, AUC0-last (zero to 24 hours postdose), 400 mg DS (Fasted)): 698 ng·h/mL
AUC(0-t) (clinical; po, 400 mg, AUC0-t (zero to the last quantifiable concentration), 400 mg DS (Fasted)): 794 ng·h/mL
